Measured values published in patent US20040229825A1, “Pharmaceutical composition for treatment of infection with drug resistant bacterium and disinfectant” (priority 2003, published 2004).
Values after ≈ are worked out from the molar mass of the structure shown. Read-outs that look alike come from different tables or passages of the source.

Tests used:
MRSA [1] = test: Antibacterial activity of flavonoids on MRSA (agar plate dilution method, MIC); format: cell-based, Staphylococcus aureus; conditions: flavonoid alone; for MIC50 / MIC90 / MIC range / MIC: MRSA 20 strains; for MIC: 20 h
Procedure: (§1) MRSA were employed as bacteria to be tested. The antibacterial activity was determined according to the agar plate dilution method defined by Japan Society of Chemotherapy (Chemotherapy 29(1), 76-79(1981)). The employed plate medium for the measurement of sensitivity was semisynthetic medium based on Mueller-Hinton Agar, and the bacteria solution for seeding was prepared by incubating the test bacterium in Mueller-Hinton Broth at 37° C. for 20 hours, followed by diluting in 0.85% saline to give 10^6 CFU/mL. The test samples were produced in two times-serial dilution method. To this plate medium for the measurement of sensitivity, was seeded a bacteria solution with a Micro Planter® (Sakuma Seisakusho). After incubating at 37° C. for 20 hours, a minimum inhibitory concentration (MIC) was determined. […] In addition, MIC50 indicates a concentration yielding the proliferation inhibitory effect in 50% of total number of MRSA strains, whilst MIC90 indicates a concentration yielding the proliferation inhibitory effect in 90% of total number of MRSA strains.

MRSA [2] = test: Enhancement of the antibacterial activity of methicillin by various flavonoids on MRSA; format: cell-based, Staphylococcus aureus
Procedure: as §1
Antibacterial Activities of Methicillin on MRSA with 50 μg/mL of Various Flavonoids

MRSA [3] = test: Enhancement of the antibacterial activity of various antibiotics by flavone on MRSA; format: cell-based, Staphylococcus aureus; conditions: for MIC: Staphylococcus aureus, antibiotics alone; for MIC +flavone: addition of 50 μg/mL of flavone
Procedure: as §1
Antibacterial Activities of Various β-Lactam Antibiotics on MRSA with 50 μg/mL of Flavone

[4] = system: penicillinase producing Staphylococcus aureus; test: Effects of flavone in combination with benzylpenicillin or methicillin on penicillinase producing Staphylococcus aureus; format: cell-based
Procedure: as §1
The effects of flavone in combination with benzylpenicillin or methicillin on penicillinase producing Staphylococcus aureus are shown in Table 4.
Effects of Flavone in Combination with Benzylpenicillin or Methicillin on Penicillinase Producing Staphylococcus aureus.

MRSA infected mouse = test: Antibacterial activity on MRSA infected mouse (survival rate after 5 days); format: in vivo
Procedure: MRSA was incubated with Brain-Heart Infusion medium at 37° C. for 18 hours, and then the bacteria were collected and washed, followed by resuspension in saline. The suspension was admixed in an aqueous 5% gastric mucin solution and the concentration was adjusted to a predetermined value. Then, 0.2 mL of the mixture was intraperitoneally administered to an ICR strain SPF mouse. At one hour after the infection, various concentrations of β-lactam agents and rutin (0.2 mL) was subcutaneously administered, and survival rate was analyzed after 5 days and thus the effectiveness was evaluated. In addition, the effectiveness by oral administration (0.2 mL) was evaluated and various concentrations of β-lactam agents and rutin (0.2 mL) were administered using a gastric probe 1 hour or 5 hours prior to the infection.

[5] = Dissolution of rutin (auxiliary effects of L-arginine hydrochloride and L-cysteine); solubility in water; format: physicochemical
Procedure: To the solution B, is added 3.5 mL of the solution A. After adjusting the pH of the mixture to 8.5 with HCl, the mixture is filtered to give an injectable.

[6] = Staphylococcus aureus, read-out: MIC50
[7] = Staphylococcus aureus, read-out: MIC90
[8] = antibiotic alone, 0.5 mg/mouse, after 5 days
[9] = antibiotic alone, 1 mg/mouse, after 5 days
[10] = antibiotic alone, 5 mg/mouse, after 5 days
[11] = antibiotic alone, 10 mg/mouse, after 5 days
[12] = antibiotic alone, 15 mg/mouse, after 5 days
[13] = oral, antibiotic 10 mg/mouse with rutin 5 mg/mouse
[14] = oral, antibiotic 10 mg/mouse with rutin 10 mg/mouse
[15] = oral, antibiotic 15 mg/mouse with rutin 5 mg/mouse
[16] = oral, antibiotic 15 mg/mouse with rutin 10 mg/mouse
[17] = subcutaneous, antibiotic 10 mg/mouse with rutin 5 mg/mouse
[18] = subcutaneous, antibiotic 10 mg/mouse with rutin 10 mg/mouse
[19] = subcutaneous, antibiotic 15 mg/mouse with rutin 5 mg/mouse
[20] = subcutaneous, antibiotic 15 mg/mouse with rutin 10 mg/mouse

## O=C1c2ccc(O)cc2OC(c2cc(O)c(O)c(O)c2)C1O (stereo in doubt) [dihydrorobinetin]
MRSA [1]
  MIC50: 250 µg/mL (≈ 822 µM)
  MIC90: 250 µg/mL (≈ 822 µM)
  MIC range: 250 µg/mL (≈ 822 µM)

## O=c1cc(-c2ccc(O)c(O)c2)oc2ccccc12 [3′,4′-dihydroxyflavone]
MRSA [1]; Staphylococcus aureus
  MIC: 62.5 to 250 µg/mL (≈ 246 to 983 µM)
MRSA [1]; [6]
  MIC50: 125 µg/mL (≈ 492 µM)
MRSA [1]; [7]
  MIC90: 250 µg/mL (≈ 983 µM)
MRSA [1]
  antibacterial activity on MRSA (in words): potent antibacterial activity

## O=c1cc(-c2ccccc2)oc2cc(O)c(O)cc12 [6,7-dihydroxyflavone]
MRSA [1]; [6]
  MIC50: 62.5 µg/mL (≈ 246 µM)
MRSA [1]; [7]
  MIC90: 125 µg/mL (≈ 492 µM)
MRSA [1]
  antibacterial activity on MRSA (in words): potent antibacterial activity

## O=c1cc(-c2ccc(O)cc2)oc2cc(O)ccc12 [7,4′-dihydroxyflavone]
MRSA [1]; Staphylococcus aureus
  MIC: 125 to 500 µg/mL (≈ 492 to 1970 µM)
MRSA [1]; [6]
  MIC50: 250 µg/mL (≈ 983 µM)
MRSA [1]; [7]
  MIC90: 500 µg/mL (≈ 1970 µM)

## O=c1cc(-c2ccccc2)oc2c(O)c(O)ccc12 [7,8-dihydroxyflavone]
MRSA [1]; Staphylococcus aureus
  MIC: 31.3 to 125 µg/mL (≈ 123 to 492 µM)
MRSA [1]; [6]
  MIC50: 62.5 µg/mL (≈ 246 µM)
MRSA [1]; [7]
  MIC90: 125 µg/mL (≈ 492 µM)
MRSA [1]
  antibacterial activity on MRSA (in words): potent antibacterial activity

## Oc1cc(O)c2c(c1)O[C@@H](c1cc(O)c(O)c(O)c1)[C@H](O)C2 [(−)-gallocatechin]
MRSA [2]; 50 μg/mL of the named flavonoid added
  MIC of methicillin: 2 µg/mL

## CC1(C)S[C@@H]2[C@H](NC(=O)Cc3ccccc3)C(=O)N2[C@H]1C(=O)O [benzylpenicillin]
MRSA [3]
  MIC: 64 µg/mL
  MIC +flavone: 32 µg/mL
[4]; + flavone 50 μg/mL
  MIC: 0.39 µg/mL
[4]; antibiotic alone
  MIC: 1.56 µg/mL

## O=C(/C=C/c1ccc(O)c(O)c1)c1ccc(O)cc1O [butein]
MRSA [1]; Staphylococcus aureus
  MIC: 125 to 250 µg/mL (≈ 459 to 918 µM)
MRSA [1]; [6]
  MIC50: 250 µg/mL (≈ 918 µM)
MRSA [1]; [7]
  MIC90: 250 µg/mL (≈ 918 µM)

## CC1(C)S[C@@H]2[C@H](NC(=O)C(C(=O)O)c3ccccc3)C(=O)N2[C@H]1C(=O)O (stereo partly shown) [carbenicillin]
MRSA [3]
  MIC: > 256 µg/mL
  MIC +flavone: 4 µg/mL

## CC(=O)OCC1=C(C(=O)O)N2C(=O)[C@@H](NC(=O)CSc3ccncc3)[C@H]2SC1 [cefapirin]
MRSA [3]
  MIC: 128 µg/mL
  MIC +flavone: <0.016 µg/mL
MRSA infected mouse; [8]
  survival rate: 20%
MRSA infected mouse; [9]
  survival rate: 20%
MRSA infected mouse; [10]
  survival rate: 20%
MRSA infected mouse; [11]
  survival rate: 20%
MRSA infected mouse; [12]
  survival rate: 40%
MRSA infected mouse; [13]
  survival rate: 40%
MRSA infected mouse; [14]
  survival rate: 60%
MRSA infected mouse; [15]
  survival rate: 60%
MRSA infected mouse; [16]
  survival rate: 80%
MRSA infected mouse; [17]
  survival rate: 0%
MRSA infected mouse; [18]
  survival rate: 20%
MRSA infected mouse; [19]
  survival rate: 80%
MRSA infected mouse; [20]
  survival rate: 100%

## CO/N=C(\C(=O)N[C@@H]1C(=O)N2C(C(=O)O)=C(COC(C)=O)CS[C@H]12)c1csc(N)n1 [cefotaxime]
MRSA [3]
  MIC: > 1020 µg/mL
  MIC +flavone: 64 µg/mL

## CO[C@@]1(NC(=O)Cc2cccs2)C(=O)N2C(C(=O)O)=C(COC(N)=O)CS[C@@H]21 [cefoxitin]
MRSA [3]
  MIC: 512 µg/mL
  MIC +flavone: 32 µg/mL

## CC1=C(C(=O)O)N2C(=O)[C@@H](NC(=O)[C@H](N)C3=CCC=CC3)[C@H]2SC1 [cefradine]
MRSA [3]
  MIC: > 256 µg/mL
  MIC +flavone: 1 µg/mL

## CO/N=C(\C(=O)N[C@@H]1C(=O)N2C(C(=O)O)=C(COC(N)=O)CS[C@H]12)c1ccco1 [cefuroxime]
MRSA [3]
  MIC: 1020 µg/mL
  MIC +flavone: 512 µg/mL

## Oc1cc(O)c2cc(O)c(-c3ccc(O)c(O)c3)[o+]c2c1 [cyanidin]
MRSA [1]; [6]
  MIC50: 250 µg/mL
MRSA [1]; [7]
  MIC90: > 500 µg/mL

## O=c1c(O)c(-c2ccc(O)c(O)c2)oc2cc(O)ccc12 [fisetin]
MRSA [1]; Staphylococcus aureus
  MIC: 62.5 to 125 µg/mL (≈ 218 to 437 µM)
MRSA [1]; [6]
  MIC50: 125 µg/mL (≈ 437 µM)
MRSA [1]; [7]
  MIC90: 125 µg/mL (≈ 437 µM)
MRSA [1]
  antibacterial activity on MRSA (in words): potent antibacterial activity

## O=c1cc(-c2ccccc2)oc2ccccc12 [flavone]
MRSA [1]; [6]
  MIC50: 62.5 µg/mL (≈ 281 µM)
MRSA [1]; [7]
  MIC90: 125 µg/mL (≈ 562 µM)
[5]
  solubility in water (in words): insoluble in water

## O=C1c2ccc(O)cc2O[C@H](c2ccc(O)c(O)c2)[C@H]1O [fustin]
MRSA [1]; [6]
  MIC50: 500 µg/mL (≈ 1730 µM)
MRSA [1]; [7]
  MIC90: 500 µg/mL (≈ 1730 µM)

## COc1ccc(-c2oc3cc(O)cc(O)c3c(=O)c2O)cc1 [kaempferid]
MRSA [1]
  MIC50: 125 µg/mL (≈ 416 µM)
  MIC90: 125 µg/mL (≈ 416 µM)
  MIC range: 15.6 to 125 µg/mL
  antibacterial activity on MRSA (in words): potent antibacterial activity

## O=C1C[C@@H](c2ccc(O)cc2)Oc2cc(O)ccc21 [liquiritigenin]
MRSA [1]
  MIC50: 500 µg/mL (≈ 1950 µM)
  MIC90: 500 µg/mL (≈ 1950 µM)
  MIC range: 250 to 500 µg/mL

## COc1cccc(OC)c1C(=O)N[C@@H]1C(=O)N2[C@@H]1SC(C)(C)[C@@H]2C(=O)O [methicillin]
MRSA [2]; Staphylococcus aureus, methicillin alone
  MIC: 1020 µg/mL
MRSA [2]; methicillin alone
  MIC of methicillin: 1024 µg/mL
MRSA [3]
  MIC: 1020 µg/mL
  MIC +flavone: 4 µg/mL
[4]; antibiotic alone
  MIC: 0.98 µg/mL

## O=c1c(O)c(-c2ccc(O)cc2O)oc2cc(O)cc(O)c12 [morin]
MRSA [1]; [6]
  MIC50: 500 µg/mL (≈ 1650 µM)
MRSA [1]; [7]
  MIC90: > 500 µg/mL

## O=c1c(O)c(-c2cc(O)c(O)c(O)c2)oc2cc(O)cc(O)c12 [myricetin]
MRSA [1]; Staphylococcus aureus
  MIC: 250 to 500 µg/mL (≈ 786 to 1570 µM)
MRSA [1]; [6]
  MIC50: 500 µg/mL (≈ 1570 µM)
MRSA [1]; [7]
  MIC90: 500 µg/mL (≈ 1570 µM)

## O=C1C[C@@H](c2ccc(O)cc2)Oc2cc(O)cc(O)c21 [naringenin]
MRSA [1]; [6]
  MIC50: 500 µg/mL (≈ 1840 µM)
MRSA [1]; [7]
  MIC90: > 500 µg/mL

## Cc1onc(-c2ccccc2)c1C(=O)N[C@@H]1C(=O)N2[C@@H]1SC(C)(C)[C@@H]2C(=O)O [oxacillin]
MRSA [3]
  MIC: 512 µg/mL
  MIC +flavone: 1 µg/mL
MRSA infected mouse; [8]
  survival rate: 20%
MRSA infected mouse; [9]
  survival rate: 0%
MRSA infected mouse; [10]
  survival rate: 20%
MRSA infected mouse; [11]
  survival rate: 20%
MRSA infected mouse; [12]
  survival rate: 0%
MRSA infected mouse; [13]
  survival rate: 20%
MRSA infected mouse; [14]
  survival rate: 20%
MRSA infected mouse; [15]
  survival rate: 40%
MRSA infected mouse; [16]
  survival rate: 40%
MRSA infected mouse; oxacillin alone, all doses
  survival rate: ≤ 20%
MRSA infected mouse; [17]
  survival rate: 40%
MRSA infected mouse; [18]
  survival rate: 80%
MRSA infected mouse; [19]
  survival rate: 60%
MRSA infected mouse; [20]
  survival rate: 60%

## Oc1ccc(-c2[o+]c3cc(O)cc(O)c3cc2O)cc1 [palagonidin]
MRSA [1]; Staphylococcus aureus
  MIC: 250 µg/mL
MRSA [1]; [6]
  MIC50: 250 µg/mL
MRSA [1]; [7]
  MIC90: 250 µg/mL

## CC(=N)N1CC[C@H](SC2=C(C(=O)O)N3C(=O)[C@H]([C@@H](C)O)[C@H]3C2)C1 [panipenem]
MRSA [3]
  MIC: 64 µg/mL
  MIC +flavone: 0.002 µg/mL

## CC(Oc1ccccc1)C(=O)N[C@@H]1C(=O)N2[C@@H]1SC(C)(C)[C@@H]2C(=O)O (stereo partly shown) [phenethicillin]
MRSA [3]
  MIC: 128 µg/mL
  MIC +flavone: 16 µg/mL

## O=C(CCc1ccc(O)cc1)c1c(O)cc(O)cc1O [phloretin]
MRSA [1]; Staphylococcus aureus
  MIC: 125 to 250 µg/mL (≈ 456 to 912 µM)
MRSA [1]; [6]
  MIC50: 250 µg/mL (≈ 912 µM)
MRSA [1]; [7]
  MIC90: 250 µg/mL (≈ 912 µM)
